Counter-ions that a name gives are not always drawn.
Target: T1, catalytic domain of human PARP14 (residues 1611 to 1801) with NanoLuc tag (Homo sapiens, UniProt Q460N5)
T1 construct: expressed in transfected cells; host or cells: HEK-293T cells (ATCC), pcDNA3.1(-) vector
T1 sequence (Q460N5 1611-1801): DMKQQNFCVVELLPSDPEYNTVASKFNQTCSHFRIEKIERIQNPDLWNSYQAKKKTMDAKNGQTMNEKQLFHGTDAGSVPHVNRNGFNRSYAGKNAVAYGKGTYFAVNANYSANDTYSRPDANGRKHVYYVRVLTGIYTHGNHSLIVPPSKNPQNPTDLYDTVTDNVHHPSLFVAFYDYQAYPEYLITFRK
Assay: NanoLuc assay for the degradation of PARP14 (NanoLuc-tagged PARP14 overexpressed in HEK-293T cells, 2 hours)
Assay type: cell-based
Conditions: Assay A (Example A): NanoLuc-tagged PARP14 degradation in HEK-293T cells, read-out: DC50
Experimental: The insert also contained a NanoLuc tag on the N terminus of the PARP14 protein.
Degradation of PARP14 protein was assessed using measurement of the NanoLuc tag as proxy for the PARP14 protein. […] Plasmid DNA was diluted in empty vector DNA then added to 1.163 mL of phenol red free OptiMEM (Thermo Fisher). Plasmid DNA concentrations used in each assay described in Table 1. The plasmid DNA was mixed with 78.5 μL of Fugene HD (Promega) and allowed to incubate 5 minutes.
The transfection was incubated for 24 hrs at 37 degrees in an incubator supplemented with 5% CO2. The cells were then trypsinized and brought up in phenol red free OptiMEM media. […] 40 nL of a dose response curve diluted in DMSO of each test compound was added to the cell plate using a Mosquito (TTP Labtech) and the plate was incubated at 37° C. for 2 hours. Assay plate was brought to room temperature then 20 μL per well of NanoGlo (Promega) was added to the plate. Luminescence was measured on an Envision (Perkin Elmer).
The average DMSO was calculated from 32 wells containing 0.1% DMSO only in columns 12 and 24 of the assay plate. The % of DMSO values were calculated as described below: […]
The % of DMSO values were plotted as a function of compound concentration and the following 4-parameter fit was applied to derive the DC50 values:
where top, bottom, and Hill Coefficient are allowed to float. Y is the % of DMSO and X is the compound concentration
DC50 data for the Example compounds is provided below in Table 2 (“+” is <0.1 μM; “++” is ≥0.1 μM and <1 μM; and “+++” is ≥1 μM).

Compound | DC50 [nM]
O=C(CN1CCC(COc2cc(F)c3c(=O)[nH]c(CSC4CCOCC4)nc3c2)CC1)NCCCCCCCCNc1cccc2c1C(=O)N(C1CCC(=O)NC1=O)C2=O (centres unmarked) [Example 3, N-(8-((2-(2,6-dioxopiperidin-3-yl)-1,3-dioxoisoindolin-4-yl)amino)octyl)-2-(4-(((5-fluoro-4-oxo-2-(((tetrahydro-2H-pyran-4-yl)thio)methyl)-3,4-dihydroquinazolin-7-yl)oxy)methyl)piperidin-1-yl)acetamide] | < 100
O=C1CCC(N2C(=O)c3cccc(NCCOCCOCCC(=O)N4CCC(COc5cc(F)c6c(=O)[nH]c(CSC7CCOCC7)nc6c5)CC4)c3C2=O)C(=O)N1 (centres unmarked) [Example 4, 2-(2,6-dioxopiperidin-3-yl)-4-((2-(2-(3-(4-(((5-fluoro-4-oxo-2-(((tetrahydro-2H-pyran-4-yl)thio)methyl)-3,4-dihydroquinazolin-7-yl)oxy)methyl)piperidin-1-yl)-3-oxopropoxy)ethoxy)ethyl)amino)isoindoline-1,3-dione] | < 100
O=C1CCC(N2C(=O)c3cccc(NCCC(=O)N4CCC(COc5cc(F)c6c(=O)[nH]c(CSC7CCOCC7)nc6c5)CC4)c3C2=O)C(=O)N1 (centres unmarked) [Example 5, 2-(2,6-dioxopiperidin-3-yl)-4-((3-(4-(((5-fluoro-4-oxo-2-(((tetrahydro-2H-pyran-4-yl)thio)methyl)-3,4-dihydroquinazolin-7-yl)oxy)methyl)piperidin-1-yl)-3-oxopropyl)amino)isoindoline-1,3-dione] | < 100
O=C1CCC(N2C(=O)c3cccc(NCC(=O)N4CCC(COc5cc(F)c6c(=O)[nH]c(CSC7CCOCC7)nc6c5)CC4)c3C2=O)C(=O)N1 (centres unmarked) [Example 6, 2-(2,6-dioxopiperidin-3-yl)-4-((2-(4-(((5-fluoro-4-oxo-2-(((tetrahydro-2H-pyran-4-yl)thio)methyl)-3,4-dihydroquinazolin-7-yl)oxy)methyl)piperidin-1-yl)-2-oxoethyl)amino)isoindoline-1,3-dione] | < 100
O=C(CN1CCC(COc2cc(F)c3c(=O)[nH]c(CSC4CCOCC4)nc3c2)CC1)NCCOCCOCCNc1cccc2c1C(=O)N(C1CCC(=O)NC1=O)C2=O (centres unmarked) [Example 7, N-(2-(2-(2-((2-(2,6-dioxopiperidin-3-yl)-1,3-dioxoisoindolin-4-yl)amino)ethoxy)ethoxy)ethyl)-2-(4-(((5-fluoro-4-oxo-2-(((tetrahydro-2H-pyran-4-yl)thio)methyl)-3,4-dihydroquinazolin-7-yl)oxy)methyl)piperidin-1-yl)acetamide] | < 100
O=C1CCC(N2C(=O)c3cccc(NCCCOCCC(=O)N4CCC(COc5cc(F)c6c(=O)[nH]c(CSC7CCOCC7)nc6c5)CC4)c3C2=O)C(=O)N1 (centres unmarked) [Example 10, 2-(2,6-dioxopiperidin-3-yl)-4-((3-(3-(4-(((5-fluoro-4-oxo-2-(((tetrahydro-2H-pyran-4-yl)thio)methyl)-3,4-dihydroquinazolin-7-yl)oxy)methyl)piperidin-1-yl)-3-oxopropoxy)propyl)amino)isoindoline-1,3-dione] | < 100
O=C1CCC(N2C(=O)c3cccc(NCCCCC(=O)N4CCC(COc5cc(F)c6c(=O)[nH]c(CSC7CCOCC7)nc6c5)CC4)c3C2=O)C(=O)N1 (centres unmarked) [Example 12, 2-(2,6-dioxopiperidin-3-yl)-4-((5-(4-(((5-fluoro-4-oxo-2-(((tetrahydro-2H-pyran-4-yl)thio)methyl)-3,4-dihydroquinazolin-7-yl)oxy)methyl)piperidin-1-yl)-5-oxopentyl)amino)isoindoline-1,3-dione] | < 100
O=C(CN1CCC(COc2cc(F)c3c(=O)[nH]c(CSC4CCOCC4)nc3c2)CC1)NCCOCCCNc1cccc2c1C(=O)N(C1CCC(=O)NC1=O)C2=O (centres unmarked) [Example 13, N-(2-(3-((2-(2,6-dioxopiperidin-3-yl)-1,3-dioxoisoindolin-4-yl)amino)propoxy)ethyl)-2-(4-(((5-fluoro-4-oxo-2-(((tetrahydro-2H-pyran-4-yl)thio)methyl)-3,4-dihydroquinazolin-7-yl)oxy)methyl)piperidin-1-yl)acetamide] | < 100
O=C1CCC(N2C(=O)c3ccc(NCC(=O)N4CCC(COc5cc(F)c6c(=O)[nH]c(CSC7CCOCC7)nc6c5)CC4)cc3C2=O)C(=O)N1 (centres unmarked) [Example 14, 2-(2,6-dioxopiperidin-3-yl)-5-((2-(4-(((5-fluoro-4-oxo-2-(((tetrahydro-2H-pyran-4-yl)thio)methyl)-3,4-dihydroquinazolin-7-yl)oxy)methyl)piperidin-1-yl)-2-oxoethyl)amino)isoindoline-1,3-dione] | < 100
O=C1CCC(N2Cc3c(cccc3N3CCN(CC4CCN(C(=O)CN5CCC(COc6cc(F)c7c(=O)[nH]c(CSC8CCOCC8)nc7c6)CC5)CC4)CC3)C2=O)C(=O)N1 (centres unmarked) [Example 17, 3-(4-(4-((1-(2-(4-(((5-fluoro-4-oxo-2-(((tetrahydro-2H-pyran-4-yl)thio)methyl)-3,4-dihydroquinazolin-7-yl)oxy)methyl)piperidin-1-yl)acetyl)piperidin-4-yl)methyl)piperazin-1-yl)-1-oxoisoindolin-2-yl)piperidine-2,6-dione] | < 100
O=C1CCN(c2ccc(C3CCN(CC4CCN(C(=O)CN5CCC(COc6cc(F)c7c(=O)[nH]c(CSC8CCOCC8)nc7c6)CC5)CC4)CC3)cc2)C(=O)N1 [Example 19, 1-(4-(1-((1-(2-(4-(((5-fluoro-4-oxo-2-(((tetrahydro-2H-pyran-4-yl)thio)methyl)-3,4-dihydroquinazolin-7-yl)oxy)methyl)piperidin-1-yl)acetyl)piperidin-4-yl)methyl)piperidin-4-yl)phenyl)dihydropyrimidine-2,4(1H,3H)-dione] | < 100

Now from value to compound:

DC50 [nM] | Compound
< 100 | O=C(CN1CCC(COc2cc(F)c3c(=O)[nH]c(CSC4CCOCC4)nc3c2)CC1)NCCCCNc1cccc2c1C(=O)N(C1CCC(=O)NC1=O)C2=O (centres unmarked) [Example 8, N-(4-((2-(2,6-dioxopiperidin-3-yl)-1,3-dioxoisoindolin-4-yl)amino)butyl)-2-(4-(((5-fluoro-4-oxo-2-(((tetrahydro-2H-pyran-4-yl)thio)methyl)-3,4-dihydroquinazolin-7-yl)oxy)methyl)piperidin-1-yl)acetamide]
< 100 | O=C1CCC(N2C(=O)c3cccc(NCCCCCCCCC(=O)N4CCC(COc5cc(F)c6c(=O)[nH]c(CSC7CCOCC7)nc6c5)CC4)c3C2=O)C(=O)N1 (centres unmarked) [Example 9, 2-(2,6-dioxopiperidin-3-yl)-4-((9-(4-(((5-fluoro-4-oxo-2-(((tetrahydro-2H-pyran-4-yl)thio)methyl)-3,4-dihydroquinazolin-7-yl)oxy)methyl)piperidin-1-yl)-9-oxononyl)amino)isoindoline-1,3-dione]
< 100 | O=C1CCC(N2C(=O)c3cccc(NCCCCCCC(=O)N4CCC(COc5cc(F)c6c(=O)[nH]c(CSC7CCOCC7)nc6c5)CC4)c3C2=O)C(=O)N1 (centres unmarked) [Example 11, 2-(2,6-dioxopiperidin-3-yl)-4-((7-(4-(((5-fluoro-4-oxo-2-(((tetrahydro-2H-pyran-4-yl)thio)methyl)-3,4-dihydroquinazolin-7-yl)oxy)methyl)piperidin-1-yl)-7-oxoheptyl)amino)isoindoline-1,3-dione]
< 100 | O=C1CCC(N2C(=O)c3ccc(N4CCN(CC5CCN(C(=O)CN6CCC(COc7cc(F)c8c(=O)[nH]c(CSC9CCOCC9)nc8c7)CC6)CC5)CC4)cc3C2=O)C(=O)N1 (centres unmarked) [Example 15, 2-(2,6-dioxopiperidin-3-yl)-5-(4-((1-(2-(4-(((5-fluoro-4-oxo-2-(((tetrahydro-2H-pyran-4-yl)thio)methyl)-3,4-dihydroquinazolin-7-yl)oxy)methyl)piperidin-1-yl)acetyl)piperidin-4-yl)methyl)piperazin-1-yl)isoindoline-1,3-dione formate]
< 100 | O=C1CCC(Nc2ccc(C(=O)N3CCC(COc4cc(F)c5c(=O)[nH]c(CSC6CCOCC6)nc5c4)CC3)cc2)C(=O)N1 (centres unmarked) [Example 16, 3-((4-(4-(((5-fluoro-4-oxo-2-(((tetrahydro-2H-pyran-4-yl)thio)methyl)-3,4-dihydroquinazolin-7-yl)oxy)methyl)piperidine-1-carbonyl)phenyl)amino)piperidine-2,6-dione]
< 100 | O=C1CCC(Nc2ccc(C3CCN(CC4CCN(C(=O)CN5CCC(COc6cc(F)c7c(=O)[nH]c(CSC8CCOCC8)nc7c6)CC5)CC4)CC3)cc2)C(=O)N1 (centres unmarked) [Example 18, 3-((4-(1-((1-(2-(4-(((5-fluoro-4-oxo-2-(((tetrahydro-2H-pyran-4-yl)thio)methyl)-3,4-dihydroquinazolin-7-yl)oxy)methyl)piperidin-1-yl)acetyl)piperidin-4-yl)methyl)piperidin-4-yl)phenyl)amino)piperidine-2,6-dione]

Reference: US20240101540A1, “TARGETED PROTEIN DEGRADATION OF PARP14 FOR USE IN THERAPY” (Ribon Therapeutics, Inc., priority 2022, published 2024)
